Assay results: ChEMBL document CHEMBL1129273, “Structural modifications of thalidomide produce analogs with enhanced tumor necrosis factor inhibitory activity” (J Med Chem, 1996)

Experiments:
[1] = biological target: T1, Tumor necrosis factor (Homo sapiens, UniProt P01375); assay: Inhibitory activity of TNF-alpha was measured in the supernatant of human PBMCs stimulated with LPS.; type: functional
[2] = biological target: T1, Tumor necrosis factor; assay: Inhibition of TNF-alpha production in LPS stimulated human PBMCs; type: functional

T1 sequence (P01375 whole entry): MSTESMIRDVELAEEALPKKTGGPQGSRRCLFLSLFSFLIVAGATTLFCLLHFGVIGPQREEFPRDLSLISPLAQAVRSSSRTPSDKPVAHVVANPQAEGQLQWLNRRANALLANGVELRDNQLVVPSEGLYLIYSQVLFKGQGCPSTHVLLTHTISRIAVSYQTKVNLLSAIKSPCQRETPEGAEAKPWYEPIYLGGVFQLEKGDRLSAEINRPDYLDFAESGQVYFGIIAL

SMILES	IC50 [1] [µM]	IC50 [2] [µM]
COC(=O)CC(c1ccc(OC)c(OC)c1)N1C(=O)c2cc(Cl)c(Cl)cc2C1=O (stereo unspecified)	13	–
NC(=O)CC(c1ccc2ccccc2c1)N1C(=O)c2ccccc2C1=O (stereo unspecified)	–	51
CCNC(=O)CC(c1ccc(OC)c(OC)c1)N1C(=O)c2ccccc2C1=O (stereo unspecified)	–	53
COC(=O)CC(c1ccc(OC)c(OC)c1)N1C(=O)c2cccc(N)c2C1=O (stereo unspecified)	–	0.45
COC(=O)CC(c1ccc(OC)c(OC)c1)N1C(=O)c2cccc([N+](=O)[O-])c2C1=O (stereo unspecified)	64	–
COC(=O)CC(c1ccc(OC)c(OC)c1)N1C(=O)c2ccc(N)cc2C1=O (stereo unspecified)	–	0.38
N#Cc1cccc(C(CC(N)=O)N2C(=O)c3ccccc3C2=O)c1 (stereo unspecified)	–	89
COC(=O)CC(c1ccc(OC)c(OC)c1)N1C(=O)c2c(Cl)ccc(Cl)c2C1=O (stereo unspecified)	7.9	–
COc1ccc(C(CC(N)=O)N2C(=O)c3ccccc3C2=O)cc1 (stereo unspecified)	–	62
CNC(=O)CC(c1ccc(OC)c(OC)c1)N1C(=O)c2ccccc2C1=O (stereo unspecified)	–	12
COC(=O)CC(c1ccc(OC)c(OC)c1)N1C(=O)c2ccc(C(C)(C)C)cc2C1=O (stereo unspecified)	–	4.2
COc1ccc(C(CC(=O)O)N2C(=O)c3ccccc3C2=O)cc1OC (stereo unspecified)	–	60
NC(=O)CC(c1ccccc1)N1C(=O)c2ccccc2C1=O (stereo unspecified)	–	260
COc1ccc(C(CC(N)=O)N2C(=O)c3ccccc3C2=O)cc1OC (stereo unspecified)	–	12
NC(=O)CC(c1ccc(Cl)c(Cl)c1)N1C(=O)c2ccccc2C1=O (stereo unspecified)	–	70
COc1cccc(C(CC(N)=O)N2C(=O)c3ccccc3C2=O)c1 (stereo unspecified)	–	120
CCOc1ccc(C(CC(N)=O)N2C(=O)c3ccccc3C2=O)cc1OCC (stereo unspecified)	–	5.6
COc1cc(OC)cc(C(CC(N)=O)N2C(=O)c3ccccc3C2=O)c1 (stereo unspecified)	–	39
COc1ccc(C(CC(=O)NCc2ccccc2)N2C(=O)c3ccccc3C2=O)cc1OC (stereo unspecified)	–	84
COC(=O)CC(c1ccc(OC)c(OC)c1)N1C(=O)c2ccc([N+](=O)[O-])cc2C1=O (stereo unspecified)	34	–
CCCOc1ccc(C(CC(N)=O)N2C(=O)c3ccccc3C2=O)cc1OCCC (stereo unspecified)	–	55
N#Cc1ccc(C(CC(N)=O)N2C(=O)c3ccccc3C2=O)cc1 (stereo unspecified)	–	150
COC(=O)CC(c1ccc(OC)c(OC)c1)N1C(=O)c2ccccc2C1=O (stereo unspecified)	–	2.9
COC(=O)CC(c1ccc(OC)c(OC)c1)N1C(=O)c2cc3ccccc3cc2C1=O (stereo unspecified)	–	4.7
COC(=O)CC(c1ccc(OC)c(OC)c1)N1C(=O)c2cccc(O)c2C1=O (stereo unspecified)	–	15
COc1ccc(C(CCO)N2C(=O)c3ccccc3C2=O)cc1OC (stereo unspecified)	–	7.5
